Experimental findings from publication PMC4685943 (ACS Chemical Biology, 2015) are described below.

One assay has as its system NCI-H2286 and HCC-366. The assay can be described thus: Cell proliferation assays in DDR2 mutated cell lines. To be noted: NCI-H2286 and HCC-366, 5 days, single agent. The assay is classed as cell-based.
The target of a further assay is T1, DDR2 (Homo sapiens, UniProt Q16832).
T1 sequence (Q16832 22-855): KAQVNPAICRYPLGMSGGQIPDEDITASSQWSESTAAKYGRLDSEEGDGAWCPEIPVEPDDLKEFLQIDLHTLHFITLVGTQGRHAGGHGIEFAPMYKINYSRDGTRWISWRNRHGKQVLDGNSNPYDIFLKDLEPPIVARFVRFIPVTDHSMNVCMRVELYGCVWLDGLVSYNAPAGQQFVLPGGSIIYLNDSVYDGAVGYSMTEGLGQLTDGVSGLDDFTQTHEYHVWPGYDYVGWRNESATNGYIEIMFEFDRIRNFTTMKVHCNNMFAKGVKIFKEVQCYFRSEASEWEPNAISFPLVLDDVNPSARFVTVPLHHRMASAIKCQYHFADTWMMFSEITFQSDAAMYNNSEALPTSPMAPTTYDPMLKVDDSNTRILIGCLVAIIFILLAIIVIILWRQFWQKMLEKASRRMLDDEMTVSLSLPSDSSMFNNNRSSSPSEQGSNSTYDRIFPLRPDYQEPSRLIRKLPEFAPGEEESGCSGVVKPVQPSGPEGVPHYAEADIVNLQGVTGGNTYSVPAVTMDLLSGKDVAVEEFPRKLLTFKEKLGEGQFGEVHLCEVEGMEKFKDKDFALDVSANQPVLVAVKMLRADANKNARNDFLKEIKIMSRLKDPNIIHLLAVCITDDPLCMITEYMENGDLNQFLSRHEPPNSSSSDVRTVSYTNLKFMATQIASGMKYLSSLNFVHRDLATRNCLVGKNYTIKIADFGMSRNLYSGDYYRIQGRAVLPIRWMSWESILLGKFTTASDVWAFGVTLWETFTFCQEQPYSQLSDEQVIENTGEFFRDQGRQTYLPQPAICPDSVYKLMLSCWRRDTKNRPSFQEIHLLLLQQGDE
The assay can be described thus: DDR2 phosphorylation, IP/Western blot in 293T cells expressing wild type DDR2. It is filed as cell-based. As to conditions: 293T cells expressing wild type DDR2, IP anti-DDR2 / blot 4G10. A general note: A western blot detects proteins with antibodies after separation by electrophoresis.

`CN1CCN(CCOc2cc(OC3CCOCC3)c3c(Nc4c(Cl)ccc5c4OCO5)ncnc3c2)CC1` [Saracatinib]: in the assay on NCI-H2286 and HCC-366, the “antiproliferative potency in DDR2 mutated cell lines” value is “greater inhibition of cell proliferation as compared to compound 1”.
Regarding `Cc1nc(Nc2ncc(C(=O)Nc3c(C)cccc3Cl)s2)cc(N2CCN(CCO)CC2)n1` [Dasatinib], the “effect on p-DDR2” value at DDR2 was “potent inhibition”.
